# Assay results published in patent US7825264B2, “Substituted heterocycles, their use as medicament, and pharmaceutical preparations comprising them” (sanofi-aventis, priority 2005, dated 2010).
# Molecular target: T1, Human Kv1.5 channels (Homo sapiens, UniProt P22460)
# T1 construct: expressed in transfected cells; host or cells: Xenopus laevis oocytes injected with RNA synthesized in vitro
# Experiment: Activity on the Kv1.5 channel: two-microelectrode voltage clamp on Xenopus oocytes expressing Kv1.5
# Assay type: cell-based
# Conditions: human Kv1.5 expressed in Xenopus oocytes, room temperature, Hill equation; read-out: Kv1.5 IC-50
# Experimental: Determination of the Activity on the Kv1.5 Channel
# Human Kv1.5 channels were expressed in xenopus oocytes. For this purpose, firstly oocytes were isolated from Xenopus laevis and defolliculated. Kv1.5-encoding RNA synthesized in vitro was then injected into these oocytes. After Kv1.5 protein expression for 1-7 days, Kv1.5 currents were measured on the oocytes using the two-microelectrode voltage clamp technique. The Kv1.5 channels were in this case usually activated with voltage jumps lasting 500 ms to 0 mV and 40 mV. A solution of the following composition flowed through the bath: NaCl 96 mM, KCl 2 mM, CaCl2 1.8 mM, MgCl2 1 mM, HEPES 5 mM (titrated to pH 7.4 with NaOH). These experiments were carried out at room temperature. The following were employed for data acquisition and analysis: Geneclamp amplifier (Axon Instruments, Foster City, USA) and MacLab D/A converter and software (ADInstruments, Castle Hill, Australia). The substances of the invention were tested by adding them in various concentrations to the bath solution. The effects of the substances were calculated as percent inhibition of the Kv1.5 control current which was obtained when no substance was added to the solution. The data were then extrapolated using the Hill equation in order to determine the inhibitory concentrations IC50 for the respective substances.
# T1 sequence (P22460 whole entry): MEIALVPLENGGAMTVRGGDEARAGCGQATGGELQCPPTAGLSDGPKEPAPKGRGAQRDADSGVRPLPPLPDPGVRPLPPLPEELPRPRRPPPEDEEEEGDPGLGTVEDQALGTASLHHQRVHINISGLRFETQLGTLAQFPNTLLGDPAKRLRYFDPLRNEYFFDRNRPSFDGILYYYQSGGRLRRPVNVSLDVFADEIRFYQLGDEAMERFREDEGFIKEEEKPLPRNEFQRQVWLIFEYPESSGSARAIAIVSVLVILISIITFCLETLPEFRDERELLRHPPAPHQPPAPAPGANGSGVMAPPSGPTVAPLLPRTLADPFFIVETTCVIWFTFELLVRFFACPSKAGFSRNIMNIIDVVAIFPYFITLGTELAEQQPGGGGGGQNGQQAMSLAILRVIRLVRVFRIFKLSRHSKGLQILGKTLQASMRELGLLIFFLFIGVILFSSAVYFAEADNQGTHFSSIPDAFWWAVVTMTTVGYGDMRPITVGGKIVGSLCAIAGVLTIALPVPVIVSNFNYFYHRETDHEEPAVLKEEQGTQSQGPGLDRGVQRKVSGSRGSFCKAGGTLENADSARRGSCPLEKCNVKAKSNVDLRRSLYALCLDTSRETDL
row,Structure (SMILES),IC50 [nM]
1,"O=C1CCCCN1[C@@H](c1ccc(F)cc1)[C@@H](OCC1CC1)c1cccc2cccnc12 (racemic) [Example 1, 1-[(1R′,2S′)-2-Cyclopropylmethoxy-1-(4-fluorophenyl)-2-quinolin-8-ylethyl]-piperidin-2-one]",1400
2,"O=C1CCCN1[C@@H](c1ccc(F)cc1)[C@H](OCCCC(F)(F)F)c1cccnc1 (racemic) [Example 2, 1-[(1R′,2S′)-1-(4-Fluorophenyl)-2-pyridin-3-yl-2-(4,4,4-trifluorobutoxy)-ethyl]pyrrolidin-2-one]",6000
3,"O=C1CCCN1[C@@H](c1cccc2cccnc12)[C@H](OCC1CC1)c1ccc(F)cc1 (racemic) [Example 3, 1-[(1R′,2S′)-2-Cyclopropylmethoxy-2-(4-fluorophenyl)-1-quinolin-8-ylethyl]-pyrrolidin-2-one]",500
4,"O=C1CCCN1[C@@H](c1ccccn1)[C@H](OCC1CC1)c1ccccc1 (racemic) [Example 5, 1-[(1R′,2S′)-2-Cyclopropylmethoxy-2-phenyl-1-pyridin-2-ylethyl]pyrrolidin-2-one]",1300
5,"CCCO[C@@H](c1ccc(Cl)cc1)[C@@H](c1ccccc1)N1CCCC1=O (racemic) [Example 6, (1R′,2S′)-1-[2-(4-Chlorophenyl)-1-phenyl-2-propoxyethyl]pyrrolidin-2-one]",920
6,"N#Cc1ccc(O[C@@H](c2cccc3cccnc23)[C@H](c2ccc(F)cc2)N2CCCC2=O)cc1 (racemic) [Example 10, 4-[(1R′,2R′)-2-(4-Fluorophenyl)-2-(2-oxopyrrolidin-1-yl)-1-quinolin-8-ylethoxy]benzonitrile]",4400
7,"O=C1CCCN1[C@H](c1ccc(F)cc1)[C@@H](OCC1CC1)c1cccc2ccccc12 (racemic) [Example 11, 1-[(1S′,2R′)-2-Cyclopropylmethoxy-1-(4-fluorophenyl)-2-naphthalen-1-ylethyl]pyrrolidin-2-one]",200
8,"O=C1CCCN1[C@H](c1ccc(F)cc1)[C@H](OCC1CC1)c1cccc2ccccc12 (racemic) [Example 12, 1-[(1R′,2R′)-2-Cyclopropylmethoxy-1-(4-fluorophenyl)-2-naphthalen-1-ylethyl]pyrrolidin-2-one]",500
9,CCCO[C@H](c1ccc(Cl)cc1)[C@H](c1ccccc1)N1CCCCC1=O (racemic) [Example 13],210
10,O=C1CCCCN1[C@@H](c1ccc(F)cc1)[C@H](OCC1CC1)c1ccc(F)c(F)c1 (racemic) [Example 14],330
11,O=C1CCCN1[C@@H](c1cccnc1)[C@H](OCC1CC1)c1ccc(F)cc1 (racemic) [Example 16],800
12,Cc1ccc([C@H]([C@H](OCC2CC2)c2ccc(F)cc2)N2CCCC2=O)s1 (racemic) [Example 17],300
13,CCCO[C@H](c1ccccc1)[C@@H](c1ccccc1)N1CCCC1=O (racemic) [Example 19],300
14,CCCO[C@H](c1ccc(F)cc1)[C@H](c1ccccc1)N1CCCC1=O (racemic) [Example 20],300
15,O=C1CCCN1[C@H](c1ccccc1)[C@H](OCC1CC1)c1ccc(F)cc1 (racemic) [Example 21],800
16,O=C1CCCN1[C@@H](c1ccccc1)[C@H](OCCCC(F)(F)F)c1ccc(Cl)cc1 (racemic) [Example 22],500
17,O=C1CCCN1[C@@H](c1ccc(F)cc1)[C@H](OCCCC(F)(F)F)C1CCCCC1 (racemic) [Example 24],650
18,CCCO[C@@H](c1ccc(F)cc1)[C@H](c1ccccc1)N1CCCC1=O (racemic) [Example 25],450
19,C#CCO[C@H](c1ccc(F)c(F)c1)[C@H](c1ccc(F)cc1)N1C(=O)CCC1C (mixture of isomers) [Example 26],1000
20,O=C1CCCN1[C@H](c1ccc(F)cc1)[C@H](OCC1CC1)c1ccc(F)cc1 (racemic) [Example 27],600

row,Structure (SMILES),IC50 [nM]
1,CCCO[C@@H](c1ccc(Cl)cc1)[C@H](c1ccccc1)N1CCCC1=O (racemic) [Example 28],900
2,C[C@](c1ccccc1)([C@H](OCC1CC1)c1ccccc1)N1CCCC1=O (racemic) [Example 29],900
3,C#CCO[C@H](c1ccc(F)c(F)c1)[C@H](c1ccc(F)cc1)N1CCCCC1=O (racemic) [Example 30],1100
4,C[C@@](c1ccccc1)([C@H](OCC1CC1)c1ccccc1)N1CCCC1=O (racemic) [Example 31],1400
5,"O=C1CCCN1[C@@H](c1ccccc1)[C@H](OC1CC1)c1ccccc1 (racemic) [Example 32, 1S,2R-1-(Cyclopropoxy-1,2-diphenylethyl)pyrrolidin-2-one]",600
6,CCCO[C@H](c1ccc(F)cc1)[C@@H](c1ccc(F)cc1)N1CCCC1=O (racemic) [Example 33],900
7,O=C1CCCN1[C@@H](c1ccc(F)cc1)[C@H](OCCCC(F)(F)F)c1ccc(F)c(F)c1 (racemic) [Example 34],1000
8,CC1CCC(=O)N1[C@@H](c1ccc(F)cc1)[C@H](OCC1CC1)c1ccc(F)c(F)c1 (mixture of isomers) [Example 35],500
9,CCCO[C@H](c1ccc(C#N)cc1)[C@H](c1ccc(F)cc1)N1CCCC1=O (racemic) [Example 36],600
10,O=C1CCCN1[C@@H](c1ccc(F)cc1)[C@H](OCC1CC1)c1cc(F)cc(F)c1 (racemic) [Example 37],700
11,C#CCO[C@H](c1ccc(F)c(F)c1)[C@H](c1ccc(F)cc1)N1CCCC1=O (racemic) [Example 38],700
12,O=C1CCCN1[C@H](c1ccc(F)cc1)[C@@H](OCC1CC1)c1cccc2cccnc12 (racemic) [Example 39],1100
13,O=C1CCCN1[C@@H](c1ccccc1)[C@H](OCc1cccc(Cl)c1)c1ccc(Cl)cc1 (racemic) [Example 40],800
14,N#Cc1ccc([C@@H](OCC2CC2)[C@H](c2ccc(F)cc2)N2CCCC2=O)cc1 (racemic) [Example 41],1000
15,O=C1CCCN1[C@@H](c1ccc(F)cc1)[C@H](OCC1CC1)c1ccc(F)c(F)c1 (racemic) [Example 42],600
16,O=C1CCCN1[C@H](c1ccc(F)cc1)[C@H](OCCCC(F)(F)F)c1ccc(F)cc1 (racemic) [Example 43],1400
17,O=C1CCCN1[C@@H](c1ccccc1)[C@H](OCC1CC1)c1ccc(F)cc1 (racemic) [Example 44],500
18,N#Cc1ccc(O[C@H](c2ccc(Cl)cc2)[C@H](c2ccccc2)N2CCCC2=O)cc1 (racemic) [Example 45],1000
19,COCCO[C@H](c1ccc(Cl)cc1)[C@H](c1ccccc1)N1CCCC1=O (racemic) [Example 47],1000
20,COc1ccc(CO[C@H](c2ccc(F)c(F)c2)[C@H](c2ccc(F)cc2)N2CCCC2=O)cc1 (racemic) [Example 48],2100

row,Structure (SMILES),IC50 [nM]
1,O=C1CCCN1[C@@H](c1ccc(F)cc1)[C@H](OC1CC1)c1ccc(F)c(F)c1 (racemic) [Example 49],500
2,O=C1CCCN1[C@@H](c1ccc(F)cc1)[C@H](OCC1CC1)c1ccc(OC(F)(F)F)cc1 (racemic) [Example 50],900
3,O=C1CCCN1[C@@H](c1ccccc1)[C@H](OCCCC(F)(F)F)c1ccc(F)cc1 (racemic) [Example 51],900
4,O=C1CCCN1[C@@H](c1ccccc1)[C@@H](OCc1ccccc1)c1ccc(F)cc1 (racemic) [Example 53],1800
5,N#Cc1ccc(O[C@H](c2ccc(F)cc2)[C@H](c2cccc3cccnc23)N2CCCC2=O)cc1 (racemic) [Example 55],1100
6,CCCCO[C@H](c1ccc(Cl)cc1)[C@H](c1ccccc1)N1CCCC1=O (racemic) [Example 56],800
7,O=C1CCCN1[C@@H](c1ccccc1)[C@H](OCc1ccc(Cl)cc1)c1ccc(Cl)cc1 (racemic) [Example 57],1000
8,O=C1CCCN1[C@@H](c1ccc(F)cc1)[C@H](OCC1CC1)c1cccnc1 (racemic) [Example 58],1000
9,COc1ccc([C@@H](Oc2ccc(C#N)cc2)[C@H](c2ccc(F)cc2)N2CCCC2=O)cc1 (racemic) [Example 59],1900
10,COc1ccc(CO[C@H](c2ccc(Cl)cc2)[C@H](c2ccccc2)N2CCCC2=O)cc1 (racemic) [Example 60],1300
11,CS(=O)(=O)c1ccc([C@@H](OCC2CC2)[C@H](c2ccc(F)cc2)N2CCCC2=O)cc1 (racemic) [Example 61],1800
12,CC#CCO[C@H](c1ccc(F)c(F)c1)[C@H](c1ccc(F)cc1)N1CCCC1=O (racemic) [Example 62],2400
13,O=C1CCCN1[C@H](c1ccccn1)[C@H](OCC1CC1)c1ccccc1 (racemic) [Example 63],1700
14,CCCO[C@H](c1ccccc1)[C@@H](c1ccccn1)N1CCCC1=O (racemic) [Example 64],1830
15,O=C1CCCN1[C@@H](c1cccnc1)[C@H](OCCCC(F)(F)F)c1ccc(F)cc1 (racemic) [Example 65],1500
16,N#Cc1ccc(O[C@H](c2cccnc2)[C@H](c2cccc3cccnc23)N2CCCC2=O)cc1 (racemic) [Example 66],2300
17,CO[C@H](c1ccc(Cl)cc1)[C@H](c1ccccc1)N1CCCCC1=O (racemic) [Example 67],1200
18,CCO[C@H](c1ccc(Cl)cc1)[C@H](c1ccccc1)N1CCCC1=O (racemic) [Example 68],500
